Assay results from patent US20050197336A1 (Miikana Therapeutics Corporation, priority 2004, published 2005).

Experiments:
[1] = system: Histone deacetylase (HDAC), HeLa cell nuclear extract; assay: In vitro fluorescent histone deacetylase assay (Biomol kit, HeLa cell nuclear extract); type: biochemical; details: compound at 100 μM; HeLa cell nuclear extract as HDAC source; substrate 50 μM; 10 min at room temperature
Outline: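 HeLa nuclear extract supplies mixed HDAC activity acting on fluorogenic substrate at 50 μM final, 10 min at room temperature before stopping. Compounds serially diluted in assay buffer, final DMSO ≤2%. Fluorescence read at ex 355/em 460 nm.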

MCF7 cells = assay: Whole cell cytotoxicity assay: Sulforhodamine B; type: cell-based, human; details: Homo sapiens; compound at 100 μM; MCF7 cell growth; 48 hours with drug; SRB staining
Outline: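 MCF7 cells in DMEM with 10% FBS were seeded 24 h before compound, then exposed to nine concentrations for 48 h at 37° C. TCA-fixed cells stained with sulforhodamine B; absorbance at 570 nm, with a time-zero plate fixed at drug addition.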

| SMILES | % inhibition HDAC @ 100 μM [1] [%] | inhibition at 100 µM (MCF7 cells) [%] |
| --- | --- | --- |
| CN(C)C(=O)c1ccc(-c2ccc(S(=O)(=O)N3CCN(c4ncc(C(=O)NO)s4)CC3)cc2)cc1 [Example 68, 2-[4-(4′-N,N-dimethylcarboxamido-1,1′-biphenylsulfonyl)piperazin-1-yl]-1,3-thiazole-5-carboxylic acid hydroxyamide] | 99 | 84.7 |
| O=C(NO)c1cnc(N2CCN(S(=O)(=O)c3ccc(-c4ccncc4)cc3)CC2)s1 [Example 72, 2-{4-[4-(pyridin-4-yl)phenylsulfonyl]piperazin-1-yl}-1,3-thiazole-5-carboxylic acid hydroxyamide] | 98 | 84.5 |
| O=C(NO)c1cnc(N2CCN(S(=O)(=O)c3ccc(-c4cccc(CN5CCCCC5)c4)cc3)CC2)s1 [Example 73] | 100 | 96.7 |
| CN(C)Cc1cccc(-c2ccc(S(=O)(=O)N3CCN(c4ncc(C(=O)NO)s4)CC3)cc2)c1.Cl [Example 74] | 100 | 97.3 |
| Cl.O=C(NO)c1cnc(N2CCN(S(=O)(=O)c3ccc(-c4cccc(CN5CCCC5)c4)cc3)CC2)s1 [Example 75] | 100 | 98.6 |
| CC1CCN(Cc2cccc(-c3ccc(S(=O)(=O)N4CCN(c5ncc(C(=O)NO)s5)CC4)cc3)c2)CC1.Cl [Example 76] | 99 | 98 |
| Cl.O=C(NO)c1cnc(N2CCN(S(=O)(=O)c3ccc(-c4cccc(CN5CCCCCC5)c4)cc3)CC2)s1 [Example 77] | 100 | 98 |
| CCN(CC)Cc1cccc(-c2ccc(S(=O)(=O)N3CCN(c4ncc(C(=O)NO)s4)CC3)cc2)c1.Cl [Example 78] | 100 | 99 |
| C=CCN(C)Cc1cccc(-c2ccc(S(=O)(=O)N3CCN(c4ncc(C(=O)NO)s4)CC3)cc2)c1.Cl [Example 79] | 99 | 98 |
| CN(C)Cc1ccc(-c2ccc(S(=O)(=O)N3CCN(c4ncc(C(=O)NO)s4)CC3)cc2)cc1 [Example 80] | 99 | 97.9 |
| CN(C)Cc1sccc1-c1ccc(S(=O)(=O)N2CCN(c3ncc(C(=O)NO)s3)CC2)cc1 [Example 81] | 100 | 97.1 |
| O=C(NO)c1cnc(N2CCN(S(=O)(=O)c3ccc(-c4ccsc4CN4CCCC4)cc3)CC2)s1 [Example 82] | 99 | 92.7 |
| CN1CCN(Cc2cccc(-c3ccc(S(=O)(=O)N4CCN(c5ncc(C(=O)NO)s5)CC4)cc3)c2)CC1 [Example 84] | 100 | 96.7 |
| CCN(C)Cc1cccc(-c2ccc(S(=O)(=O)N3CCN(c4ncc(C(=O)NO)s4)CC3)cc2)c1 [Example 86] | 99 | 97.8 |
| CC(C)N(C)Cc1cccc(-c2ccc(S(=O)(=O)N3CCN(c4ncc(C(=O)NO)s4)CC3)cc2)c1 [Example 87, 2-{4-[(3′-[isopropyl(methyl)amino]methyl]-1,1′-biphenylsulfonyl]-piperazin-1-yl}-1,3-thiazole-5-carboxylic acid hydroxyamide] | 99 | 97.7 |
| O=C(NO)c1cnc(N2CCN(S(=O)(=O)c3ccc(-c4ccc(CN5CCCC5)s4)cc3)CC2)s1 [Example 88] | 99 | 93.8 |
| O=C(NO)c1cnc(N2CCN(S(=O)(=O)c3ccc(-c4sccc4CN4CCCC4)cc3)CC2)s1 [Example 89] | 99 | 98.3 |
| O=C(NO)c1cnc(N2CCN(S(=O)(=O)c3ccc(-c4cccc(CN5CCCC5)c4)s3)CC2)s1 [Example 90, 2-(4-{5-[3-(pyrrolidin-1-ylmethyl)phenyl]thiophene-2-sulfonyl}piperazin-1-yl)-1,3-thiazole-5-carboxylic acid hydroxyamide] | 99 | 98 |
| O=C(NO)c1cnc(N2CCN(S(=O)(=O)c3ccc(-c4cncnc4)cc3)CC2)s1 [Example 91, 2-[4-{(4-pyrimidine)benzenesulfonyl}-piperazin-1-yl]-thiazole-5-carboxylic acid hydroxyamide] | 99 | 94.6 |
| CC(=O)Nc1ccc(-c2ccc(S(=O)(=O)N3CCN(c4ncc(C(=O)NO)s4)CC3)cc2)cc1 [Example 92] | 100 | 88.8 |
| O=C(NO)c1cnc(N2CCN(S(=O)(=O)c3ccc(-c4cccnc4)cc3)CC2)s1 [Example 93, 2-[4-{(3-pyrido)benzenesulfonyl}-piperazin-1-yl]-thiazole-5-carboxylic acid hydroxyamide] | 100 | 92.7 |
| O=C(NO)c1cnc(N2CCN(S(=O)(=O)CCc3ccccc3)CC2)s1 [Example 94, 2-[4-(phenethylsulfonyl)-piperazin-1-yl]-thiazole-5-carboxylic acid hydroxyamide] | 98 | 90.6 |
| CN(C)Cc1ccc(S(=O)(=O)N2CCN(c3ncc(C(=O)NO)s3)CC2)cc1 [Example 95] | 98 | 96.8 |
| CN(C)Cc1cccc(S(=O)(=O)N2CCN(c3ncc(C(=O)NO)s3)CC2)c1 [Example 97] | 99 | 83.9 |
| O=C(NO)c1cnc(N2CCN(S(=O)(=O)c3cccc(CN4CCCC4)c3)CC2)s1 [Example 98] | 98 | 92.2 |
| COCc1cccc(S(=O)(=O)N2CCN(c3ncc(C(=O)NO)s3)CC2)c1 [Example 99, 2-[4-(3-methoxymethylbenzenesulfonyl)-piperazin-1-yl]-thiazole-5-carboxylic acid hydroxyamide] | 99 | 96 |
| Cn1cnc(S(=O)(=O)N2CCN(c3ncc(C(=O)NO)s3)CC2)c1 [Example 102] | 99 | 84 |
| COc1ccc(S(=O)(=O)N2CCN(c3ncc(C(=O)NO)s3)CC2)cc1 [Example 103, 2-[4-(4-Methoxybenzenesulfonyl)piperazin-1-yl]-thiazole-5-carboxylic acid hydroxyamide] | 100 | 97.5 |
| O=C(NO)c1cnc(N2CCN(S(=O)(=O)c3ccc(CN4CCCC4)cc3)CC2)s1 [Example 105] | 99 | 93 |
| O=C(NO)c1cnc(N2CCN(S(=O)(=O)c3ccc(CN4CCOCC4)cc3)CC2)s1 [Example 106] | 99 | 82.3 |
